Read-outs that look alike come from different tables or passages of the source.
What was measured:
PSMA = PSMA affinity, cited from earlier work
[1] = tested on: LNCaP tumour-bearing mice; test: Ex vivo biodistribution in LNCaP tumour-bearing mice; set-up: species or system SCID mice; settings: for tumour-to-blood ratio / tumour-to-muscle ratio / tumour-to-kidney ratio: mean ± SD, n = 4
Procedure: The eight-week-old male SCID mice (Charles River, Massachusetts, USA) were used to generate the mouse tumour model. The implantation of 10 million LNCaP cells (ATCC, Virginia, USA) per mouse in a 1:1 mixture of Matrigel matrix (Corning, New York, USA) was performed subcutaneously behind the right shoulder of the mouse. Tumours of adequate size, representing a volume of 100–300 mm³, were observed after five to six weeks.
Ex vivo biodistribution of PSMA inhibitors in tumor-bearing mice was conducted as follows. Concisely, 30 µL of acetate buffer was added to the each ⁶⁸Ga -labelled inhibitor, namely: ⁶⁸Ga-P15, ⁶⁸Ga-P16, ⁶⁸Ga-P19, and ⁶⁸Ga-PSMA-617 to achieve physiological pH. Mice were r.o. injected with 100 µL of labelled inhibitor (2 MBq, approximately 0.5 µg of the inhibitor). Animals were divided into two groups for biodistribution studies at 1 and 2 h after administration of the respective ^68Ga-labelled PSMA inhibitor. The animals were sacrificed and autopsied after euthanasia, and organs: spleen, pancreas, stomach, intestine, kidney, liver, heart, lung, muscle, bone, and tumour were collected in scintillation vials. The vials containing the samples were weighed and measured in a Wizard2 gamma counter (PerkinElmer, USA). The measured values were then adjusted for radionuclide decay and expressed as a percentage of administered dose per gram of organ (%ID/g). The NanoScan® hybrid Positron Emission Tomography/Computed Tomography (PET/CT) machine (Mediso, Budapest, Hungary) was used for in vivo imaging specifically whole-body helical PET/CT scans. Imaging settings were: single field of view (FOV) PET scans (98.5 mm) which took 10 min for each mouse and helical CT scans (50 kVp/980 µA, 720 projections) both took place one hour after the administration. Each mouse received an injection of approximately 10 MBq of tested radiopharmaceutical. To prevent the mice’s eyes from drying out during anaesthesia eye ointment (Ophthalmo-Azulen, Zentiva, CR) was applied. Image reconstruction was performed using Mediso Tera-Tomo 3D PET iterative reconstruction (Mediso Medical Imaging Systems, Budapest, Hungary). Both reconstruction and data evaluation were performed in Mediso InterView FUSION software (Mediso Medical Imaging Systems, Budapest, Hungary) (Mediso, Budapest, Hungary). Final images were normalised to injected activity and animal weight. All organs with radiopharmaceutical accumulation were roughly delineated on the images, while their SUVmax value was recorded. The SUV41% (Standardized Uptake Value 41%) was then calculated as 41% of each SUVmax value of given hotspot and the ROI was delineated based on this value (Boellaard et al. [2015]). All images were exported in maximum intensity projection (MIP) mode. The results from the ex vivo biodistribution study were subjected to statistical analysis, namely unpaired Student’s t-test (Microsoft Excel 365, USA).

[2] = Radiochemical stability in physiological pH water environment; format: physicochemical; settings: pH 7, 37 °C; for Stability in Physiological pH (%): radiochemical purity, n = 1
Procedure: (§1) Quality control, i.e. radiochemical purity, of the ^68Ga-labelled PSMA inhibitors was evaluated by analytical high performance liquid chromatography (HPLC; Dionex UltiMate 3000, Thermo Scientific, Waltham, Massachusetts, USA) using the following equipment: ACE 3 C18 column; 150 × 3 mm, 3 μm (Advanced Chromatography Technologies Ltd, Aberdeen, UK), with gradient elution A: H2O/acetonitrile (ACN); B:0.1% trifluoroacetic acid (TFA)/H2O: 0–3 min, 0% ACN; 3–10 min, 0 − 50% ACN; 10–13 min, 50 − 80% ACN; 13–15 min, 80–0% ACN, for 15 min at a flow rate of 1 mL/min. Radiometric detection was performed using a GABI Star radiodetector (Raytest GmbH, Straubenhardt, Germany) and for chromatogram quantification Chromatography Data System (CDS) - Chromeleon software (Thermo Scientific, USA) was used. The actual sample injection was performed using a Hamilton microinjector (Hamilton, USA).
Radiochemical stability in a physiological pH water environment was determined as follows: 100 µL of acetate buffer (1.1 mol/L) was added to the labelled preparation and the pH was then checked with a pH indicator paper to be 7. The mixture was further incubated at 37 °C and after 30, 60 and 120 min, 10 µL aliquot was used for HPLC analysis of radiochemical purity.

[3] = Binding to human plasma proteins; format: in vitro ADME; settings: human plasma, 37 °C, n = 2, read-out: Protein binding (%) (converted)
Procedure: (§2) Binding to human plasma proteins was determined following this procedure: 10 µL of the ⁶⁸Ga-P15 with radioactivity of 45 kBq/100 µL was mixed with 190 µL of human plasma. The sample was then incubated at 37 °C. After 0, 30, 60 and 120 min 25 µL of the sample was collected, applied to the appropriate column and centrifuged at 2000 g for 2 minutes. The radioactivity of the samples was then measured using a gamma counter 2480 Wizard^2 (PerkinElmer, Waltham, MA, USA), and then the binding to plasma proteins was calculated using the following formula % plasma protein binding = (Aelution/Atotal)×100. The same procedure was applied when determining binding to plasma proteins of ⁶⁸Ga-P16, ⁶⁸Ga-P19, and ⁶⁸Ga-PSMA-617.

human plasma proteins [4] = test: Binding to human plasma proteins; format: in vitro ADME; settings: for Protein binding (%): human plasma, 37 °C, n = 2
Procedure: as §2

[5] = Stability in human plasma/serum (radiochemical purity by HPLC); format: in vitro ADME; settings: 37 °C, incubation time 0 min, n = 1
[6] = as above; format: in vitro ADME; settings: radiochemical purity, 37 °C, n = 1
Procedure: as §1
Plasma stability was determined as follows. To 100 µL of ⁶⁸Ga-P15 with radioactivity of 45 kBq/100 µL, 400 µL of human plasma was added and mixed. The mixture was incubated at 37 °C and 100 µL samples were taken at 30, 60 and 120 min. These samples were then mixed with 200 µL of acetonitrile and placed on a shaker for 1 min. The sample was then centrifuged at 15,000 rpm for 3 min. After centrifugation, the supernatant was collected for radiochemical purity analysis by HPLC. The same procedure was applied when determining plasma stability of ⁶⁸Ga-P16, ⁶⁸Ga-P19, and ⁶⁸Ga-PSMA-617.

human plasma proteins [7] = settings: cited from earlier work
mouse serum proteins = tested on: mouse serum proteins; set-up: method as in Umbricht et al. [2018]; settings: ref Umbricht et al. [2018]; cited from earlier work

Compound: O=C(O)CCC(NC(=O)NC(CCC(=O)O)C(=O)O)C(=O)O (centres unmarked) [Glu-urea-Glu]
- Ki (PSMA; ref Kozikowski et al. [2001]): 47 nM

Compound: NCCCCC(NC(=O)NC(CCC(=O)O)C(=O)O)C(=O)O (centres unmarked) [Glu-urea-Lys]
- Ki (PSMA; ref Banerjee et al. [2008]): 15.2 nM

Compound: O=C(O)CC[C@H](NC(=O)N[C@@H](CCC(=O)N[C@H](Cc1ccc2ccccc2c1)C(=O)N[C@H]1CC[C@H](NC(=O)CN2CCN(CC(=O)O)CCN(CC(=O)O)CCN(CC(=O)O)CC2)CC1)C(=O)O)C(=O)O [P15, Glu-urea-Glu-2-Nal-D-Ala-NH-CHX-NH-DOTA]
- specific accumulation (tumour), fold lower than [68Ga]Ga-PSMA-617 ([1]; one-hour p.i.): 7 fold
- specific accumulation (tumour), fold lower than [68Ga]Ga-PSMA-617 ([1]; two-hours p.i.): more than 17.5 fold

Compound: O=C(O)CC[C@H](NC(=O)N[C@@H](CCCCNC(=O)[C@@H](NC(=O)c1ccc(CNC(=O)CN2CCN(CC(=O)O)CCN(CC(=O)O)CCN(CC(=O)O)CC2)cc1)C(c1ccccc1)c1ccccc1)C(=O)O)C(=O)O [P19, Glu-urea-Lys-3,3-diphenyl-L-Ala-AMBA-DOTA]
- tumour-to-blood ratio ([1]; two-hours p.i.): 9.1 ± 1.7
- tumour-to-muscle ratio ([1]; two-hours p.i.): 47.8 ± 12.4
- Radiochemical purity in physiological pH environment ([2]; each time-point tested (30, 60, 120 min)): highest stability

Compound: O=C(O)CC[C@H](NC(=O)N[C@@H](CCCCNC(=O)[C@H](Cc1ccc2ccccc2c1)NC(=O)[C@H]1CC[C@H](CNC(=O)CN2CCN(CC(=O)O)CCN(CC(=O)O)CCN(CC(=O)O)CC2)CC1)C(=O)O)C(=O)O [PSMA-617, Glu-urea-Lys-2-Nal-L-Ala-CHX-DOTA, reference compound]
- tumour-to-background ratio, fold higher than [68Ga]Ga-P19 ([1]; two hours after administration): ~1.5 fold
- fraction unbound at 0 min, 2.25 kBq/100 µL ([3]; incubation time 0 min): 0.47
- fraction unbound at 120 min, 2.25 kBq/100 µL ([3]; incubation time 120 min): 0.46
- Ki (PSMA; ref Benešová et al. [2015]): 2.34 nM

Compound: O=C([O-])CN1CCN(CC(=O)[O-])CCN(CC(=O)NCC2CCC(C(=O)NC(Cc3ccc4ccccc4c3)C(=O)NCCCCC(NC(=O)NC(CCC(=O)O)C(=O)O)C(=O)O)CC2)CCN(CC(=O)[O-])CC1.[68Ga+3] (centres unmarked) [[^68Ga]Ga-PSMA-617, reference compound]
- tumour-to-blood ratio ([1]; one-hour p.i.): 5.5 ± 2.0
- tumour-to-kidney ratio ([1]; one-hour p.i.): 0.12 ± 0.03
- tumour-to-kidney ratio ([1]; two hours post injection): 1.26 ± 0.46
- tumour-to-blood ratio ([1]; two-hours p.i.): 13.6 ± 7.0
- tumour-to-muscle ratio ([1]; two-hours p.i.): 68.4 ± 66.1
- Protein binding (%) (human plasma proteins [4]; incubation time 0 min): 52.6%
- Protein binding (%) (human plasma proteins [4]; incubation time 30 min): 52.9%
- Protein binding (%) (human plasma proteins [4]; incubation time 60 min): 53.3%
- Protein binding (%) (human plasma proteins [4]; incubation time 120 min): 54.3%
- Binding rate to human plasma proteins (human plasma proteins [4]; overall statement, incubation up to 120 min): approximately 54%
- Stability in human serum (%) [5]: 98.4%
- Stability in human serum (%) ([6]; incubation time 30 min): 97.8%
- Stability in human serum (%) ([6]; incubation time 60 min): 98.2%
- Stability in human serum (%) ([6]; incubation time 120 min): 98.7%
- Binding to plasma proteins (human plasma proteins [7]; human, ref Benešová et al. [2018]): 59%
- Binding to human plasma proteins (human plasma proteins [7]; ref Umbricht et al. [2018]): 59%
- Binding to mouse serum proteins (mouse serum proteins): 6%
- Stability in Physiological pH (%) ([2]; incubation time 0 min): 98.4%
- Stability in Physiological pH (%) ([2]; incubation time 30 min): 98.5%
- Stability in Physiological pH (%) ([2]; incubation time 60 min): 98.9%
- Stability in Physiological pH (%) ([2]; incubation time 120 min): 98.5%

— PMC12474757, “Paving the way for future PSMA inhibitors: insights from comparative preclinical evaluations of structure modifications” (EJNMMI Radiopharmacy and Chemistry, 2025)
